According to the supplement of paper PMC10307832:

How the values were obtained:
Test in all cases: relative viability (nuclei count vs DMSO), 5 days (fraction); higher = more cells survive
AZD1208 + Navitoclax = compound: N[C@@H]1CCCN(c2c(/C=C3\SC(=O)NC3=O)cccc2-c2ccccc2)C1 [AZD1208] + CC1(C)CCC(c2ccc(Cl)cc2)=C(CN2CCN(c3ccc(C(=O)NS(=O)(=O)c4ccc(N[C@H](CCN5CCOCC5)CSc5ccccc5)c(S(=O)(=O)C(F)(F)F)c4)cc3)CC2)C1 [Navitoclax] (partner 0.5 µM)
Outline: (§1)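 A single step with final 0.05% Triton X-100, 1% formaldehyde and 1 ug/ml Hoechst fixed the cells and stained nuclei 5 days after treatment. Lung cancer cell lines in 1536-well plates had been treated by pin tool the day after seeding with one drug alone or a fixed anchor-drug dose plus five library-drug doses (not always all listed) in √10 steps, and nuclei were counted on 4× images. Relative viability is the ratio of nuclei in treated wells to nuclei in vehicle wells, taken as the median of duplicate plates.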

AZD1208 + Luminespib = compound: N[C@@H]1CCCN(c2c(/C=C3\SC(=O)NC3=O)cccc2-c2ccccc2)C1 [AZD1208] + CCNC(=O)c1noc(-c2cc(C(C)C)c(O)cc2O)c1-c1ccc(CN2CCOCC2)cc1 [Luminespib] (partner 0.01 µM)
Outline: as §1

AZD1208 + Dasatinib = compound: N[C@@H]1CCCN(c2c(/C=C3\SC(=O)NC3=O)cccc2-c2ccccc2)C1 [AZD1208] + Cc1nc(Nc2ncc(C(=O)Nc3c(C)cccc3Cl)s2)cc(N2CCN(CCO)CC2)n1 [Dasatinib] (partner 0.075 µM)
Outline: as §1

AZD1208 + AZD7762 = compound: N[C@@H]1CCCN(c2c(/C=C3\SC(=O)NC3=O)cccc2-c2ccccc2)C1 [AZD1208] + NC(=O)Nc1cc(-c2cccc(F)c2)sc1C(=O)N[C@H]1CCCNC1 [AZD7762] (partner 0.2 µM)
Outline: as §1

Cell Line | relative viability (AZD1208 + Navitoclax; first compound 0.08 µM) | relative viability (AZD1208 + Navitoclax; first compound 0.253 µM) | relative viability (AZD1208 + Navitoclax; first compound 0.8 µM) | relative viability (AZD1208 + Navitoclax; first compound 2.53 µM) | relative viability (AZD1208 + Navitoclax; first compound 8 µM) | relative viability (AZD1208 + Luminespib; first compound 0.08 µM) | relative viability (AZD1208 + Luminespib; first compound 0.253 µM) | relative viability (AZD1208 + Luminespib; first compound 0.8 µM) | relative viability (AZD1208 + Luminespib; first compound 2.53 µM) | relative viability (AZD1208 + Luminespib; first compound 8 µM) | relative viability (AZD1208 + Dasatinib; first compound 0.08 µM) | relative viability (AZD1208 + Dasatinib; first compound 0.253 µM) | relative viability (AZD1208 + Dasatinib; first compound 0.8 µM) | relative viability (AZD1208 + Dasatinib; first compound 2.53 µM) | relative viability (AZD1208 + Dasatinib; first compound 8 µM) | relative viability (AZD1208 + AZD7762; first compound 0.08 µM) | relative viability (AZD1208 + AZD7762; first compound 0.253 µM) | relative viability (AZD1208 + AZD7762; first compound 0.8 µM) | relative viability (AZD1208 + AZD7762; first compound 2.53 µM) | relative viability (AZD1208 + AZD7762; first compound 8 µM)
LC-2-ad | 0.36 | 0.356 | 0.331 | 0.397 | 0.489 | 0.943 | 0.984 | 0.968 | 0.962 | 1.02 | 0.525 | 0.464 | 0.465 | 0.51 | 0.459 | 0.842 | 0.888 | 0.798 | 0.804 | 0.897
LCLC-97TM1 | 0.369 | 0.271 | – | 0.446 | 0.21 | 0.829 | 0.754 | 0.604 | 0.632 | 0.727 | 0.88 | 0.827 | 0.82 | 0.631 | 0.891 | 0.283 | 0.591 | 0.334 | 0.386 | 0.306
LK-2 | 0.77 | 0.523 | 0.494 | 0.433 | 0.347 | 0.17 | 0.187 | 0.2 | 0.184 | 0.17 | 0.273 | 0.224 | 0.17 | 0.167 | 0.178 | 0.307 | 0.167 | – | 0.11 | 0.144
LOU-NH91 | 0.689 | 0.709 | 0.648 | 0.638 | 0.577 | 0.34 | 0.342 | 0.365 | 0.313 | 0.322 | 0.57 | 0.551 | 0.496 | 0.496 | 0.491 | 0.74 | 0.714 | 0.71 | 0.684 | 0.667
LU99A | 0.805 | 0.855 | 0.864 | 0.712 | 0.514 | 0.306 | 0.292 | 0.204 | 0.182 | 0.238 | 0.451 | 0.556 | 0.363 | 0.572 | 0.389 | 0.371 | 0.385 | 0.41 | 0.435 | 0.365
LXF-289 | 0.955 | 1.01 | 0.932 | 0.978 | 1.03 | 0.601 | 0.584 | 0.659 | 0.607 | 0.527 | 0.227 | 0.175 | 0.195 | 0.181 | 0.15 | 1.13 | 1.27 | 1.19 | 1.22 | 1.38
NCI-H23 | 0.843 | 1.18 | 0.721 | 0.712 | 0.646 | 0.238 | 0.218 | – | 0.202 | 0.24 | 0.641 | 0.887 | 0.668 | 0.714 | 0.614 | 0.245 | 0.251 | 0.243 | 0.228 | 0.29
NCI-H322M | 1.1 | 1.27 | 1.2 | 1.13 | 1.2 | 0.784 | 0.767 | 0.794 | 0.803 | 0.88 | 0.261 | 0.235 | 0.23 | 0.224 | 0.228 | 0.627 | 0.545 | – | 0.53 | 0.552
NCI-H441 | 0.936 | 0.698 | 0.65 | 0.289 | 0.393 | 0.393 | 0.331 | 0.26 | 0.342 | 0.265 | 0.593 | 0.486 | 0.425 | 0.55 | 0.437 | 1.12 | 1.16 | 0.936 | 1.21 | 1.16
NCI-H460 | 1.05 | 1.34 | 1.17 | 1.26 | 1.16 | 0.0309 | 0.0217 | 0.0281 | 0.0375 | 0.0205 | 0.54 | 0.562 | 0.473 | 0.365 | 0.334 | 0.844 | 0.716 | 0.643 | 0.824 | 0.7
NCI-H596 | 0.912 | 1.02 | 0.85 | 0.827 | 0.651 | 0.912 | 1.19 | 0.999 | 1.05 | 0.79 | 0.545 | 0.586 | 0.524 | 0.524 | 0.462 | 1.17 | 1.07 | 1.01 | 1.01 | 0.666
NCI-H647 | 0.934 | 0.974 | 1.14 | 1.01 | 0.801 | 0.266 | 0.16 | 0.294 | 0.154 | 0.146 | 0.119 | 0.226 | 0.106 | 0.132 | 0.169 | 0.638 | 0.547 | 0.466 | 0.378 | 0.497
NCI-H727 | 0.421 | 0.357 | 0.331 | 0.316 | 0.29 | 0.362 | 0.384 | 0.431 | 0.42 | 0.458 | 0.315 | 0.322 | 0.315 | 0.313 | 0.314 | 0.586 | 0.708 | 0.502 | 0.441 | 0.518
NCI-H838 | 1.07 | 1.18 | 1.1 | 1.12 | 1.01 | 0.294 | 0.211 | 0.252 | 0.327 | 0.22 | 0.329 | 0.365 | 0.272 | 0.311 | 0.274 | 0.931 | 1.02 | 0.887 | 0.993 | 1.01
NCI-H1355 | 0.963 | 0.861 | 0.785 | 0.932 | 0.853 | 0.708 | 0.598 | 0.611 | 0.699 | 0.525 | 0.732 | 0.55 | 0.628 | 0.641 | 0.48 | 0.75 | 0.836 | 0.686 | 0.732 | 0.628
NCI-H1395 | 1.05 | 1.23 | 0.956 | 1.02 | 0.872 | 0.705 | 0.784 | 0.608 | 0.539 | 0.553 | 0.453 | 0.373 | 0.36 | 0.38 | 0.356 | 0.39 | 0.401 | 0.377 | 0.448 | 0.367
